Drawing on ChEMBL document CHEMBL5053502, “Too Hot to Handle: Antibacterial Peptides Identified in Ghost Pepper” (J Nat Prod, 2021), this text covers IC50, Activity and MBC for two molecules.

As a reminder, the pIC50 is the negative decadic logarithm of the IC50, by convention in mol/L. A word on the MBC: it is the smallest concentration meeting the test's criterion for killing.

SMILES strings stand for the structures. pIC50: −log10 of the molar value. In brackets after ≈: the same amount, converted by molar mass. Activity calls are given as the source filed them. Where a SMILES comes first, the peptide text is derived from it. Bridges are numbered along the chain shown (N, C = ends). [ ]: non-standard residue; d: D form. pGlu = O=C1CC[C@@H](C(=O)O)N1

In data set [1] the test system is Escherichia coli. Briefly: Antibacterial activity against Escherichia coli ATCC 25922 assessed as bacterial growth inhibition incubated for 4 hrs followed by resazurin addition and measured after 1 hr by fluorescence based analysis. In kind it is functional, organism-based.
The test system of data set [2] is Cell membrane. As to the kind of experiment: Induction of inner membrane permeabilization in Escherichia coli ATCC 25922 assessed as increase in absorbance at 420 nm in presence of ONPG by absorbance based assay. In kind it is subcellular.
In data set [3] the test system is Cell membrane. Briefly: Induction of outer membrane permeabilization in Escherichia coli ATCC 25922 assessed as increase in NPN uptake at 10 to 40 uM by NPN-dye based fluorescence analysis. In kind it is subcellular. The conditions noted are these: dose 10-40 µM.
Data set [4] is described as follows: Hemolytic activity in human RBC assessed as hemolysis at 2.5 to 40 uM incubated for 1 hr by absorbance based analysis. In kind it is ADME, tissue-based. The conditions noted are these: erythrocyte, dose 2.5-40 µM.
The test system of data set [5] is Acinetobacter baumannii. As to the kind of experiment: Bactericidal activity against Acinetobacter baumannii 5075 assessed as reduction in cell viability incubated for 24 hrs. Type of data set: functional.
Data set [6] concerns Acinetobacter baumannii. Briefly: Antibacterial activity against Acinetobacter baumannii 5075 assessed as bacterial growth inhibition incubated for 5 hrs by absorbance based analysis. The settings on record: Acinetobacter baumannii, 5075, 5 h. Type of data set: functional, organism-based.
Data set [7] deals with Klebsiella pneumoniae. As to the kind of experiment: Antibacterial activity against Klebsiella pneumoniae VK148 assessed as bacterial growth inhibition incubated for 4 hrs followed by resazurin addition and measured after 1 hr by fluorescence based analysis. For orientation: Resazurin is reduced to fluorescent resorufin, in cell work by metabolically active cells.
In data set [8] the test system is Pseudomonas aeruginosa. Briefly: Antibacterial activity against Pseudomonas aeruginosa 1423 assessed as bacterial growth inhibition incubated for 7 hrs by absorbance based analysis. The conditions noted are these: Pseudomonas aeruginosa, 1423, 7 h.

As for `CC[C@H](C)[C@H](NC(=O)[C@H](CCCCN)NC(=O)CNC(=O)[C@H](CC(C)C)NC(=O)CNC(=O)[C@H](CCCCN)NC(=O)[C@@H](NC(=O)[C@H](CC(C)C)NC(=O)[C@H](Cc1cnc[nH]1)NC(=O)[C@H](CCCNC(=N)N)NC(=O)CNC(=O)[C@@H](NC(=O)[C@@H](N)CCCCN)C(C)C)C(C)C)C(=O)N[C@@H](Cc1ccccc1)C(=O)N[C@@H](CCCNC(=N)N)C(=O)N[C@@H](C)C(=O)NCC(=O)N[C@H](CCCCN)C(=O)N[C@@H](C(=O)N[C@H](C(=O)N[C@@H](Cc1ccccc1)C(=O)N[C@H]1CSSC[C@@H](C(=O)N[C@@H](CCCCN)C(=O)N[C@H](C(=O)N[C@H]2CSSC[C@@H](C(=O)N[C@@H](C)C(=O)O)NC(=O)[C@@H]3CSSC[C@H](NC(=O)[C@H](CC(C)C)NC(=O)CNC(=O)[C@H](CC(N)=O)NC2=O)C(=O)N[C@@H](CC(=O)O)C(=O)N[C@@H](Cc2ccc(O)cc2)C(=O)N3)[C@@H](C)O)NC(=O)[C@H]([C@@H](C)O)NC(=O)[C@H](CC(N)=O)NC1=O)[C@@H](C)CC)C(C)C`, the pIC50 in data set [1] was 5.12.

Consider `CC[C@H](C)[C@@H]1NC(=O)[C@@H]2CSSC[C@H](NC(=O)[C@H](CCCCN)NC(=O)[C@H](C)NC(=O)[C@H](CCSC)NC(=O)[C@@H](NC(=O)[C@@H](NC(=O)[C@@H]3CCCN3C(=O)[C@H](CC(=O)O)NC(=O)[C@H](CC(C)C)NC(=O)[C@@H](NC(=O)[C@H](CCC(=O)O)NC(=O)[C@@H]3CCC(=O)N3)[C@@H](C)O)[C@@H](C)CC)CSSC[C@@H](C(=O)N[C@H](C(=O)N[C@@H](CC(C)C)C(=O)O)C(C)C)NC(=O)CNC(=O)[C@H](C)NC1=O)C(=O)N[C@@H](C(C)C)C(=O)N[C@@H](CC(C)C)C(=O)N[C@@H](CCCCN)C(=O)N[C@H]1CSSC[C@H](NC(=O)[C@H](Cc3c[nH]c4ccccc34)NC(=O)[C@H](C)NC(=O)[C@H](CCCCN)NC(=O)[C@H](CCCCN)NC(=O)CNC1=O)C(=O)N[C@@H](CC(C)C)C(=O)N[C@@H]([C@@H](C)O)C(=O)N[C@@H](CCCCN)C(=O)N2` ([pGlu]ETLDPICMAKCVLKCGKKAWCLTKCIAGCVL-OH; disulfide 8-30, 12-26, 16-22), for which the result in data set [2] was Active. Further, the Activity was 100% in data set [3] and “Non-Toxic” in data set [4]. Further, the MBC in data set [5] came out at 8.6 µM (≈ 29.7 µg/mL). In addition, the pIC50 was 4.84 in data set [1], 5.40 in data set [6], 4.88 in data set [7] and 5.16 in data set [8].
